Measurements: patent US4798897A, “Isoquinoline derivatives” (Asahi Kasei Kogyo Kabushiki Kaisha, priority 1987, dated 1989)

test system: mesenteric artery; assay: Relaxation of mesenteric artery (KCl-contracted); conditions: Oryctolagus cuniculus; rabbit mesenteric artery contracted with 15 to 20 mM KCl; read-out: ED50 (concentration attaining 50% of complete relaxation)
Procedure: 1. Relaxation of Mesenteric Artery
A rabbit of Japanese local variety weighing about 3 kg was bled to death. Then, the abdomen of the rabbit was dissected to locate a mesenteric artery. […] Thus, shrinking and relaxation of the artery could be measured as a load on the transducer. To the organ bath, KCl was added so that the KCl concentration became 15 to 20 mM, causing the artery to shrink. Then, the compounds of the present invention were added to the organ bath to observe relaxation of the artery.
The effect of the compounds of the present invention on relaxation of mesenteric artery was examined according to the method as mentioned hereinbefore.

Row | EC50 | Compound
1 | 23 µM | CCCCCCN(CCN1CCCCC1)S(=O)(=O)c1cccc2cnccc12 [Compound (45), N-hexyl-N-(2-piperidinoethyl)-5-isoquinolinesulfonamide]
2 | 21 µM | CCCCCCN(CCCCCC)CCN(Cc1ccccc1)S(=O)(=O)c1cccc2cnccc12 [Compound (44), N-benzyl-N-(2-dihexylamimoethyl)-5-isoquinolinesulfonamide]
3 | 11 µM | CCCCCCN(C(C)CNC(C)C)S(=O)(=O)c1cccc2cnccc12 (stereo not drawn) [(39), N-hexyl-N-(2-isopropylamino-1-methylethyl)-5-isoquinolinesulfonamide]
4 | 3 µM | CCCCCCN(CC(C)N)S(=O)(=O)c1cccc2cnccc12 (stereo not drawn) [Compound (11), N-(2-aminopropyl)-N-hexyl-5-isoquinolinesulfonamide]
5 | 19 µM | CN(C)C1CCCN(S(=O)(=O)c2cccc3cnccc23)C1 (stereo not drawn) [Compound (73), 1-(5-isoquinolinesulfonyl)-3-dimethylaminopiperidine]
6 | 22 µM | O=S(=O)(c1cccc2cnccc12)N1CCC(N2CCCCC2)CC1 [Compound (62), 1-(5-isoquinolinesulfonyl)-4-piperidinopiperidine]
7 | 15 µM | CCCN(CCCCCCN)S(=O)(=O)c1cccc2cnccc12 [Compound (10), N-(6-aminohexyl)-N-propyl-5-isoquinolinesulfonamide]
8 | 10 µM | CNCCN(C)S(=O)(=O)c1cccc2cnccc12 [Compound (25), N-(2-methylaminoethyl)-N-methyl-5-isoquinolinesulfonamide]
9 | 16 µM | CC1CC(N)CN1S(=O)(=O)c1cccc2cnccc12 (stereo not drawn) [Compound (77), 1-(5-isoquinolinesulfonyl)-3-amino-5-methylpyrrolidine]
10 | 16 µM | CNC1CCN(S(=O)(=O)c2cccc3c(Cl)nccc23)C1 (stereo not drawn) [Compound (102), 1-(1-chloro-5-isoquinolinesulfonyl)-3-methylaminopyrrolidine]
11 | 24 µM | CCCCCCN(CC(C)N1CCCCC1)S(=O)(=O)c1cccc2cnccc12 (stereo not drawn) [Compound (48), N-hexyl-N-(2-piperidinopropyl)-5-isoquinolinesulfonamide]
12 | 2 µM | CCCCCCCCN(CCN)S(=O)(=O)c1cccc2cnccc12 [Compound (5), N-(2-aminoethyl)-N-octyl-5-isoquinolinesulfonamide]
13 | 13 µM | CNC1CCN(S(=O)(=O)c2cccc3cnccc23)C1 (stereo not drawn) [Compound (76), 1-(5-isoquinolinesulfonyl)-3-methylaminopyrrolidine]
14 | 20 µM | O=S(=O)(c1cccc2cnccc12)N1CCC(Nc2ccccc2)CC1 [Compound (58), 1-(5-isoquinolinesulfonyl)-4-phenylaminopiperidine]
15 | 5 µM | CCCCCCC(N)CN(CCCCCC)S(=O)(=O)c1cccc2cnccc12 (stereo not drawn) [Compound (13), N-(2-aminooctyl)-N-hexyl-5-isoquinolinesulfonamide]
16 | 19 µM | CCCCCCNCCCCCCN(CCCCCC)S(=O)(=O)c1cccc2cnccc12 [Compound (35), N-(6-hexylaminohexyl)-N-hexyl-5-isoquinolinesulfonamide]
17 | 11 µM | CCNCCN(CC)S(=O)(=O)c1cccc2cnccc12 [Compound (26), N-(2-ethylaminoethyl)-N-ethyl-5-isoquniolinesulfonamide]
18 | 4 µM | NCCN(Cc1ccccc1)S(=O)(=O)c1cccc2cnccc12 [Compound (6), N-(2-aminoethyl)-N-benzyl-5-isoquinolinesulfonamide]
19 | 13 µM | CCCCCCNCCCN(CCCCCC)S(=O)(=O)c1cccc2cnccc12 [Compound (33), N-(3-hexylaminopropyl)-N-hexyl-5-isoquinolinesulfonamide]

Row | Compound | EC50
20 | O=S(=O)(c1cccc2c(O)nccc12)N1CCC(NCc2ccccc2)CC1 [Compound (83), 1-(1-hydroxy-5-isoquinolinesulfonyl)-4-benzylaminopiperidine] | 18 µM

same assay, conditions: rabbit mesenteric artery contracted with 15 to 20 mM KCl; read-out: ED50 (concentration attaining 50% of complete relaxation)

Row | Compound | EC50
21 | 1-(1-chloro-5-isoquinolinesulfonyl)-3-(N-hexyl-N-methylamino)piperidine [Compound (100)] | 22 µM

test system: bronchial tubes; assay: Inhibition of histamine contraction of bronchial tubes (relaxation of bronchial tubes); conditions: Cavia porcellus; guinea pig bronchial tube, 10 μM histamine; Table 16; read-out: ED50 (50% decrease of histamine contraction of bronchial tubes)
Procedure: 3. Inhibition of Histamine Contraction of Bronchial Tubes (Relaxation of Bronchial Tubes)
That is, a bronchial tube sample taken from a guinea pig was suspended in the 20-ml bath filled with Krebs-Henseleit nutrient solution and maintained at a temperature of 37° C. To the bath was added histamine so that the histamine concentration became 10 μM, causing the bronchial tube sample to contract. After the contraction became stable, the compounds of the present invention were added cumulatively to the bath to observe relaxation of the bronchial tube sample.
The effect of the compounds of the present invention on relaxation of bronchial tubes was examined according to the method as mentioned hereinbefore.

Row | EC50 | Compound
22 | 17 µM | CCCCCCN(CCN1CCCCC1)S(=O)(=O)c1cccc2cnccc12 [Compound (45), N-hexyl-N-(2-piperidinoethyl)-5-isoquinolinesulfonamide]
23 | 29 µM | CCCCCCN(CCCCCC)CCN(Cc1ccccc1)S(=O)(=O)c1cccc2cnccc12 [Compound (44), N-benzyl-N-(2-dihexylamimoethyl)-5-isoquinolinesulfonamide]
24 | 20 µM | CCCCCCN(C(C)CNC(C)C)S(=O)(=O)c1cccc2cnccc12 (stereo not drawn) [(39), N-hexyl-N-(2-isopropylamino-1-methylethyl)-5-isoquinolinesulfonamide]
25 | 9 µM | CCCCCCN(CC(C)N)S(=O)(=O)c1cccc2cnccc12 (stereo not drawn) [Compound (11), N-(2-aminopropyl)-N-hexyl-5-isoquinolinesulfonamide]
26 | 26 µM | CN(C)C1CCCN(S(=O)(=O)c2cccc3cnccc23)C1 (stereo not drawn) [Compound (73), 1-(5-isoquinolinesulfonyl)-3-dimethylaminopiperidine]
27 | 23 µM | O=S(=O)(c1cccc2cnccc12)N1CCC(N2CCCCC2)CC1 [Compound (62), 1-(5-isoquinolinesulfonyl)-4-piperidinopiperidine]
28 | 16 µM | CCCN(CCCCCCN)S(=O)(=O)c1cccc2cnccc12 [Compound (10), N-(6-aminohexyl)-N-propyl-5-isoquinolinesulfonamide]
29 | 10 µM | CNCCN(C)S(=O)(=O)c1cccc2cnccc12 [Compound (25), N-(2-methylaminoethyl)-N-methyl-5-isoquinolinesulfonamide]
30 | 32 µM | CC1CC(N)CN1S(=O)(=O)c1cccc2cnccc12 (stereo not drawn) [Compound (77), 1-(5-isoquinolinesulfonyl)-3-amino-5-methylpyrrolidine]
31 | 18 µM | CNC1CCN(S(=O)(=O)c2cccc3c(Cl)nccc23)C1 (stereo not drawn) [Compound (102), 1-(1-chloro-5-isoquinolinesulfonyl)-3-methylaminopyrrolidine]
32 | 20 µM | CCCCCCN(CC(C)N1CCCCC1)S(=O)(=O)c1cccc2cnccc12 (stereo not drawn) [Compound (48), N-hexyl-N-(2-piperidinopropyl)-5-isoquinolinesulfonamide]
33 | 6 µM | CCCCCCCCN(CCN)S(=O)(=O)c1cccc2cnccc12 [Compound (5), N-(2-aminoethyl)-N-octyl-5-isoquinolinesulfonamide]
34 | 27 µM | CNC1CCN(S(=O)(=O)c2cccc3cnccc23)C1 (stereo not drawn) [Compound (76), 1-(5-isoquinolinesulfonyl)-3-methylaminopyrrolidine]
35 | 25 µM | O=S(=O)(c1cccc2cnccc12)N1CCC(Nc2ccccc2)CC1 [Compound (58), 1-(5-isoquinolinesulfonyl)-4-phenylaminopiperidine]
36 | 19 µM | CCCCCCC(N)CN(CCCCCC)S(=O)(=O)c1cccc2cnccc12 (stereo not drawn) [Compound (13), N-(2-aminooctyl)-N-hexyl-5-isoquinolinesulfonamide]
37 | 25 µM | CCCCCCNCCCCCCN(CCCCCC)S(=O)(=O)c1cccc2cnccc12 [Compound (35), N-(6-hexylaminohexyl)-N-hexyl-5-isoquinolinesulfonamide]
38 | 8 µM | CCNCCN(CC)S(=O)(=O)c1cccc2cnccc12 [Compound (26), N-(2-ethylaminoethyl)-N-ethyl-5-isoquniolinesulfonamide]
39 | 5 µM | NCCN(Cc1ccccc1)S(=O)(=O)c1cccc2cnccc12 [Compound (6), N-(2-aminoethyl)-N-benzyl-5-isoquinolinesulfonamide]
40 | 19 µM | CCCCCCNCCCN(CCCCCC)S(=O)(=O)c1cccc2cnccc12 [Compound (33), N-(3-hexylaminopropyl)-N-hexyl-5-isoquinolinesulfonamide]

Row | Compound | EC50
41 | O=S(=O)(c1cccc2c(O)nccc12)N1CCC(NCc2ccccc2)CC1 [Compound (83), 1-(1-hydroxy-5-isoquinolinesulfonyl)-4-benzylaminopiperidine] | 19 µM

same assay, conditions: guinea pig bronchial tube, 10 μM histamine; Table 16; read-out: ED50 (50% decrease of histamine contraction of bronchial tubes)

Row | Compound | EC50
42 | 1-(1-chloro-5-isoquinolinesulfonyl)-3-(N-hexyl-N-methylamino)piperidine [Compound (100)] | 22 µM
